# According to article PMC7891582 (Journal of Clinical Pharmacology, 2020):
# “Also recorded” adds a separate entry of the source.
# Tests used:
# CYP3A [1] = test: Midazolam; type: in vivo, human
# CYP2C9 [2] = biological target: CYP2C9 (Homo sapiens, UniProt P11712); test: Tolbutamide; type: in vivo
# P‐gp [3] = biological target: P‐gp (Homo sapiens, UniProt P08183); test: Digoxin; type: in vivo
# CYP2C19 [4] = biological target: CYP2C19 (Homo sapiens, UniProt P33261); test: Omeprazole
# CYP3A [5] = conditions: human liver microsome, concentration-dependent; ref unpublished data; cited from earlier work
# [6] = Safety in midazolam/tolbutamide study; type: in vivo, human
# [7] = cited from earlier work
# [8] = Safety in omeprazole/digoxin study; type: in vivo, human
# CYP2C19 [9] = conditions: in vitro data; ref unpublished in vitro studies; cited from earlier work
# CYP2C9 [10] = conditions: read-out: IC50 for CYP2C9 inhibition; in vitro; ref unpublished in vitro studies; cited from earlier work
# P‐gp [11] = conditions: cited from earlier work
# CYP3A [12] = conditions: ref unpublished in vitro studies, cited from earlier work
# [13] = coadministered with pexidartinib
# [14] = coadministered with pexidartinib 1800 mg
# [15] = after multiple doses of pexidartinib
# [16] = coadministration with single dose of pexidartinib
# [17] = coadministered with single dose pexidartinib
# [18] = omeprazole plus pexidartinib vs omeprazole only
# CYP2C19 (Homo sapiens, UniProt P33261), sequence (P33261 whole entry): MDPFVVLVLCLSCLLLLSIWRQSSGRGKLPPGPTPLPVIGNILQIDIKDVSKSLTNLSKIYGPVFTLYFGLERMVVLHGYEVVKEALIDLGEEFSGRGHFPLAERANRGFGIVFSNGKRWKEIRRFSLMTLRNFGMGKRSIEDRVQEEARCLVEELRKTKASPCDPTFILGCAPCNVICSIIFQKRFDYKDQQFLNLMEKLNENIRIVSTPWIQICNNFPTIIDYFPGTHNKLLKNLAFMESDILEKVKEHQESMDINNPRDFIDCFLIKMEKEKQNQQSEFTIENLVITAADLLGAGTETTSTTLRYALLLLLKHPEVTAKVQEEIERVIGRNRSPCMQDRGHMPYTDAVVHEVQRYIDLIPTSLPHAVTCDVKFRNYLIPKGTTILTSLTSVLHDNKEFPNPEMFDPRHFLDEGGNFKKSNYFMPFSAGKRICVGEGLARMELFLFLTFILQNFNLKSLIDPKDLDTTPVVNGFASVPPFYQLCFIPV
# P‐gp (Homo sapiens, UniProt P08183), sequence (P08183 whole entry): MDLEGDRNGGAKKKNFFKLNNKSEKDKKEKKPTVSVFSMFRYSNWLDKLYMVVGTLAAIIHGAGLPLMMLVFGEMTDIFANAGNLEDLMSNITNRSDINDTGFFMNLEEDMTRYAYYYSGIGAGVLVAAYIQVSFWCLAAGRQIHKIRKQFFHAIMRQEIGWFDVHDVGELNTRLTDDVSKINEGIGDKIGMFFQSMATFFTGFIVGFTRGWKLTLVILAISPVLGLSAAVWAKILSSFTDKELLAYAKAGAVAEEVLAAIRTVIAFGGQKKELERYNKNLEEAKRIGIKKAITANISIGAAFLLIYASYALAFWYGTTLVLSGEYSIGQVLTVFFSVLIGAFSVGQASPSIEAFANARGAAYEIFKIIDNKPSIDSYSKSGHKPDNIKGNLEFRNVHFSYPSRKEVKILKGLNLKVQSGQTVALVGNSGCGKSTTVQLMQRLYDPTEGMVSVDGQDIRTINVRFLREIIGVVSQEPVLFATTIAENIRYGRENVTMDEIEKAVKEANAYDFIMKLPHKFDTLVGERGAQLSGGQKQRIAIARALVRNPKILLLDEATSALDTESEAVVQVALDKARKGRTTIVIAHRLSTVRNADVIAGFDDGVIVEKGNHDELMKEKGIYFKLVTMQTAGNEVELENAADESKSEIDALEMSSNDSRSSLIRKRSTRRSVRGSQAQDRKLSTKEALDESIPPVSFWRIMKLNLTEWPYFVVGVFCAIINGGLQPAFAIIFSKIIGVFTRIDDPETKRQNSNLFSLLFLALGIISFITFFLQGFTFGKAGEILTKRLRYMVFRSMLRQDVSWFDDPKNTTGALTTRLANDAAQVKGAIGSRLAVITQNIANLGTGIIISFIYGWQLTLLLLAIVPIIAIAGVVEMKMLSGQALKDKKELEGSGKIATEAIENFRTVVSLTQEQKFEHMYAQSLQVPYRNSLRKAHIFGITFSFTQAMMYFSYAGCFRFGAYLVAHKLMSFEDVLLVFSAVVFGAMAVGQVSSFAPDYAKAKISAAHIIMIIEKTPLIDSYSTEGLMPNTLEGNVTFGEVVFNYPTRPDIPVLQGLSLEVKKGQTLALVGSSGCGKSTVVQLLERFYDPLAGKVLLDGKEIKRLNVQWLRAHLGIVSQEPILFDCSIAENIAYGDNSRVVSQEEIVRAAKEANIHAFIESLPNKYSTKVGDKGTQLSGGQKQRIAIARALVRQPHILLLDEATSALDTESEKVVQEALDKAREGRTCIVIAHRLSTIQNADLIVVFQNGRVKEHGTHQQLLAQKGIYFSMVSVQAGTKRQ
# CYP2C9 (Homo sapiens, UniProt P11712), sequence (P11712 whole entry): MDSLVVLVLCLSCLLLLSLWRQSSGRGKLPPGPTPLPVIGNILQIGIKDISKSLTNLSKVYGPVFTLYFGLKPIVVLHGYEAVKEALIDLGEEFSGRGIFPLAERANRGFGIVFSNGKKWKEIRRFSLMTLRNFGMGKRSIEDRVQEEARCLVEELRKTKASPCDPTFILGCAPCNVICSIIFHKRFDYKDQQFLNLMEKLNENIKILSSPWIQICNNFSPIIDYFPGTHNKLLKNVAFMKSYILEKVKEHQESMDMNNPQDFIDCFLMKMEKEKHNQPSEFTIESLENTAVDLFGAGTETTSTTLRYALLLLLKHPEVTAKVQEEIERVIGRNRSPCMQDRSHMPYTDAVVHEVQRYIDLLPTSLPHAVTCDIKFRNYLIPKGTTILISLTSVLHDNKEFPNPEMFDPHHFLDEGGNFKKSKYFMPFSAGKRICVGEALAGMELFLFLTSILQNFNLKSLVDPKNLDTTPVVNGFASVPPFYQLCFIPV
compound,measurement,setting,value
OCc1ncc2n1-c1ccc(Cl)cc1C(c1ccccc1F)=NC2 [1‐hydroxy midazolam],exposure to 1-hydroxy midazolam,CYP3A [1]; with or without concomitant pexidartinib,similar
CCCCNC(=O)NS(=O)(=O)c1ccc(CO)cc1 [4‐hydroxy tolbutamide],exposure to 4-hydroxy tolbutamide,CYP2C9 [2]; during pexidartinib coadministration,decrease
C[C@H]1O[C@@H](O[C@H]2[C@@H](O)C[C@H](O[C@H]3[C@@H](O)C[C@H](O[C@H]4CC[C@@]5(C)[C@H](CC[C@@H]6[C@@H]5C[C@@H](O)[C@]5(C)[C@@H](C7=CC(=O)OC7)CC[C@]65O)C4)O[C@@H]3C)O[C@@H]2C)C[C@H](O)[C@@H]1O [digoxin],effect on digoxin AUClast,P‐gp [3]; [13],no significant effect; also recorded: nonsignificant effect
same,effect on digoxin time to reach Cmax or shape of plasma concentration-time curve,P‐gp [3]; [13],no apparent effect
same,increase in digoxin AUClast,P‐gp [3]; [14],8%
same,increase in digoxin Cmax,P‐gp [3]; [14],32%
Cc1ncc2n1-c1ccc(Cl)cc1C(c1ccccc1F)=NC2 [midazolam],decrease in midazolam AUClast,CYP3A [1]; [15],52%
same,decrease in midazolam Cmax,CYP3A [1]; [15],28%
same,decrease in midazolam AUClast,CYP3A [1]; [16],21%
same,decrease in midazolam Cmax,CYP3A [1]; [16],9%
COc1ccc2[nH]c([S+]([O-])Cc3ncc(C)c(OC)c3C)nc2c1 (stereo not drawn) [omeprazole],decrease in Cmax for omeprazole,CYP2C19 [4]; [17],37%
same,omeprazole tmax,CYP2C19 [4]; [17],3 h
same,AUC(0-inf),"CYP2C19 [4]; human, plasma, oral, 40 mg",1.74 µg·h/mL
same,AUC(0-t),"CYP2C19 [4]; human, plasma, oral, 40 mg",1.73 µg·h/mL
same,tmax,"CYP2C19 [4]; human, plasma, oral, 40 mg",2.25 h
same,Cmax,"CYP2C19 [4]; human, plasma, po, 40 mg",0.908 µg/mL
same,AUCinf geometric LS mean ratio,CYP2C19 [4]; [18],83.2%
same,AUClast geometric LS mean ratio,CYP2C19 [4]; [18],77.4%
same,Cmax geometric LS mean ratio,CYP2C19 [4]; [18],62.8%
FC(F)(F)c1ccc(CNc2ccc(Cc3c[nH]c4ncc(Cl)cc34)cn2)cn1 [pexidartinib],effect on midazolam hydroxylation,CYP3A [5],activated midazolam hydroxylation
same,in vivo effect on CYP2C19-mediated metabolism,CYP2C19 [4]; omeprazole probe,does not significantly affect
same,subjects with a grade 4 TEAE,[6]; 30 subjects with tumors,4 subjects
same,subjects with grade 3 TEAEs,[6]; 30 subjects with tumors,40%
same,subjects who discontinued treatment due to pexidartinib-related TEAEs,"[6]; drug hypersensitivity, increased blood bilirubin",7%
same,grade 4 TEAEs considered related to pexidartinib,[6]; increased bilirubin,1
same,tolerability,[6]; midazolam/tolbutamide study,generally well tolerated
same,grade 3 TEAEs considered related to pexidartinib,[6]; of 22 grade 3 TEAEs,9
same,delay of tmax with high-fat meal,[7],1.5 h
same,effect of high-fat meal on exposure,[7],doubles
same,elimination half-life,[7],26.6 h
same,accumulation ratio (exposure vs first dose),"[7]; multiple dosing, twice-daily regimen",≈ 3.6 times
same,tmax,[7]; oral administration,≈ 2.5 hours
same,TEAEs considered related to pexidartinib (all pruritus),[8]; 20 healthy subjects,Three
same,intensity of TEAEs,[8]; 20 healthy subjects,mild (grade 1)
same,subjects who experienced a TEAE,"[8]; 20 healthy subjects, single dose 1800 mg",40%
same,tolerability,[8]; omeprazole/digoxin study,generally well tolerated
same,in vivo effect on CYP2C9 (FDA criteria),CYP2C9 [2]; tolbutamide probe,weak inhibitor
same,time dependence of inhibitory effect on CYP2C19,CYP2C19 [9],not time dependent
same,in vivo effect on CYP3A (FDA criteria),CYP3A [1]; midazolam probe,moderate inducer
same,IC50,CYP2C9 [10],3.7 µM
same,in vivo effect on P-gp transport,P‐gp [3]; digoxin probe,does not significantly affect
same,time dependence of inhibitory effect on P-gp,"P‐gp [11]; in vitro data, ref unpublished in vitro studies",not time dependent
same,IC50,"P‐gp [11]; read-out: in vitro IC50 for P-gp, preclinical data, ref data on file",43.4 µM
same,type of in vitro effect on CYP3A,CYP3A [12]; in vitro data,direct and time‐dependent inhibitor and an inducer
same,IC50,"CYP3A [12]; read-out: IC50 for CYP3A inhibition, in vitro",16.7 µM
